Experimental findings from patent publication US20260176279A1, “DUAL RAF AND TUBULIN INHIBITORS AND METHODS OF USE THEREOF” (Deciphera Pharmaceuticals, LLC, priority 2023, published 2026) are described below.

pIC50: −log10 of the molar value.

One test has as its target T1, C-Raf kinase (Homo sapiens, UniProt P04049, Y340D/Y341D).
T1 construct: C-Raf residues 306-end; Y340D, Y341D with N-; GST (N); purchased Eurofins
In words: Biochemical Assay for C-Raf (coupled pyruvate kinase/lactate dehydrogenase assay). As to conditions: Table 1, inhibition of biochemical activity; read-out: CRAF.

Another test deals with T2, B-Raf kinase (Homo sapiens, UniProt P15056).
T2 construct: GST (N); purchased Sigma
Nature of the test: Biochemical Assay for B-Raf (coupled pyruvate kinase/lactate dehydrogenase assay). The conditions noted are these: Table 1, inhibition of biochemical activity; read-out: BRAF.

In another test the test system is MiaPaca-2 cells. Nature of the test: MiaPaca-2 Cell Proliferation Assay. Format: cell-based. As to conditions: Homo sapiens, MIA PaCa-2; Table 2, inhibition of cell proliferation; read-out: MiaPaca-2. Here is the method:
MiaPaca-2 cells (catalog #CRL-1420) are obtained from the American Type Culture Collect (ATTC, Manassas, VA). Briefly, cells were grown in DMEM supplemented with 10% characterized fetal bovine serum (Invitrogen, Carlsbad, CA), 2.5% New Zealand sourced horse serum and 1% Penicillin/Streptomycin/L-Glutamine at 37° C., 5% CO2, and 95% humidity. Cells are expanded until reaching 70-95% confluency at which point they are sub-cultured or harvested for assay use. For assays completed in 96-well plates, a serial dilution of test compound is dispensed into a 96-well black clear bottom plate in triplicate. Three thousand cells are added per well in 200 μL complete growth medium in the 96-well plate. Plates are incubated for 67 to 72 h at 37° C., 5% CO2, and 95% humidity. At the end of the incubation, 40 μL of a […] solution of resazurin (Sigma, St. Louis, MO) in PBS is added to each well of the plate and plates are incubated for an additional 5 to 6 hours at 37° C., 5% CO2, and 95% humidity. For 384-well assays, a threefold, 8-point serial dilution of compound was spotted column wise into a 384 well black, clear bottom, tissue culture treated plate using the Beckman Coulter Echo 650. Likewise, a threefold, 8-point serial dilution of cobimetinib was spotted row wise into the 384 well black, clear bottom plate containing compound. DMSO concentration was constant across all wells at 0.4%. Seven hundred fifty cells are added per well in 50 μL complete growth medium in each 384-well plate. Plates are incubated for 67 to 72 h at 37° C., 5% CO2, and 95% humidity. At the end of the incubation, 10 μL of a 440 μM solution of resazurin (Sigma, St. Louis, MO) in PBS is added to each well of the plate and plates are incubated for an additional 4 to 6 h at 37° C., 5% CO2, and 95% humidity. Plates are read on a Synergy2 or equivalent reader (Biotek, Winooski VT) using an excitation of 540 nm and an emission of 600 nm. Data is analyzed using Prism software (Graphpad, San Diego, CA) to calculate IC50 values.

T2 sequence (P15056 416-766): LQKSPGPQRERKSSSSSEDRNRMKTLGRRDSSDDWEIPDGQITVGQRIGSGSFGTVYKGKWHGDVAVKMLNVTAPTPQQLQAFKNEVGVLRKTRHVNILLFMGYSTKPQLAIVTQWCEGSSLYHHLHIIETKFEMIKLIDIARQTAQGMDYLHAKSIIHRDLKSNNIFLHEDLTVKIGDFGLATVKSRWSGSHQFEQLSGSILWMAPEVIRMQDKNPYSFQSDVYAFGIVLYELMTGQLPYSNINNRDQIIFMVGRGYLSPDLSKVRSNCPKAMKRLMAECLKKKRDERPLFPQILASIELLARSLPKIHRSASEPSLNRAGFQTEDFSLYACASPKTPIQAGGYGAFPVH
T1 sequence (P04049 307-648 Y340D/Y341D): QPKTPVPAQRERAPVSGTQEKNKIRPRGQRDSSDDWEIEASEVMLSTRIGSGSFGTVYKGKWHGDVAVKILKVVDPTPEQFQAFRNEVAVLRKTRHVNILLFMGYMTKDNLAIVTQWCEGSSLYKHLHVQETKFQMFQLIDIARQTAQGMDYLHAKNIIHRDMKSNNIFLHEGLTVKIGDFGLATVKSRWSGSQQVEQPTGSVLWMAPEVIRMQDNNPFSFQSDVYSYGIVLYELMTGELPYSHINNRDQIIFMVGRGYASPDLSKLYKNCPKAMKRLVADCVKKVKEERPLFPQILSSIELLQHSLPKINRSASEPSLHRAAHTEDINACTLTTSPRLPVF

Regarding `Cc1ccc(NC(=O)Nc2ccc(C(F)(F)F)nc2)cc1-c1cc(F)nc(N2CCOCC2)c1` [Example 35], the pIC50 on C-Raf kinase and at B-Raf kinase was 5.00 to 6.00 each time.

Take `Cc1ccc(NC(=O)Nc2ccc(C(F)(F)F)nc2)cc1-c1cc(N2CCOCC2)nc(N2CCN(C)CC2)c1` [Example 31]: the pIC50 at C-Raf kinase was 6.30 to 7.00; at B-Raf kinase it was 6.00 to 6.30; in the test on MiaPaca-2 cells, 6.30 to 7.00.

With `Cc1ccc(NC(=O)Nc2ccc(C(F)(F)F)nc2)cc1-c1cc(N2CCOCC2)nc(N2CCOCC2)c1` [Example 32], the pIC50 at C-Raf kinase, on B-Raf kinase and in the test on MiaPaca-2 cells was more than 7.00 each time.

For `Cc1ccc(NC(=O)Nc2ccc(C(F)(F)F)nc2)cc1-c1cncc(-c2cc(NC(=O)C3CC3)ncn2)c1` [Example 15], the pIC50 on C-Raf kinase was more than 7.00; on B-Raf kinase, more than 7.00; in the test on MiaPaca-2 cells, 6.00 to 6.30.

As to `Cc1ccc(NC(=O)Nc2ccc(C)c(-c3cc(OCCO)nc(N4CCOCC4)c3)c2)cn1` [Example 23, 1-(3-(2-(2-hydroxyethoxy)-6-morpholinopyridin-4-yl)-4-methylphenyl)-3-(6-methylpyridin-3-yl)urea], the pIC50 at C-Raf kinase is more than 7.00; at B-Raf kinase, 6.30 to 7.00; in the test with MiaPaca-2 cells, more than 7.00.

Turning to `Cc1ccc(NC(=O)Nc2ccc(C(F)(F)F)nc2)cc1-c1cc(OCCO)nc(-c2cn[nH]c2)c1` [Example 42], the pIC50 on C-Raf kinase, on B-Raf kinase and with MiaPaca-2 cells was more than 7.00 in each case.

Turning to `CNC(=O)c1cc(-c2cncc(-c3cc(NC(=O)Nc4ccc(C(F)(F)F)nc4)ccc3C)c2)ncn1` [Example 21], the pIC50 at C-Raf kinase was more than 7.00; at B-Raf kinase, more than 7.00; in the test with MiaPaca-2 cells, 6.30 to 7.00.

With `Cc1ccc(NC(=O)Nc2ccc(C(F)(F)F)nc2)cc1-c1cc(OCC2COC2)nc(N2CCOCC2)c1` [Example 33], the values for the pIC50 at C-Raf kinase, on B-Raf kinase and in the test with MiaPaca-2 cells were more than 7.00, 6.30 to 7.00 and more than 7.00, respectively.

With `Cc1ccc(NC(=O)Nc2ccc(C(F)(F)F)nc2)cc1-c1cncc(-c2cc(N)ncn2)c1` [Example 16], the pIC50 on C-Raf kinase is more than 7.00; on B-Raf kinase it was more than 7.00; with MiaPaca-2 cells, 6.30 to 7.00.

For `Cc1ncc(NC(=O)Nc2ccc(C(F)(F)F)nc2)cc1-c1cc(OCCO)nc(N2CCOCC2)c1` [Example 26], the figures for the pIC50 at C-Raf kinase, on B-Raf kinase and in the test on MiaPaca-2 cells were more than 7.00, 5.00 to 6.00 and more than 7.00, respectively.

`Cc1ccc(NC(=O)Nc2ccc(C(F)(F)F)nc2)cc1-c1cc(OCCN(C)C)nc(N2CCOCC2)c1` [Example 30]: the pIC50 was more than 7.00 on C-Raf kinase, 6.30 to 7.00 at B-Raf kinase and more than 7.00 with MiaPaca-2 cells.

As to `CC(=O)Nc1cc(-c2cc(-c3cc(NC(=O)Nc4ccc(C(F)(F)F)nc4)ccc3C)cc(OCCO)n2)ccn1` [Example 5], the pIC50 on C-Raf kinase, on B-Raf kinase and with MiaPaca-2 cells was more than 7.00 each time.

For the compound `COCC(=O)Nc1cc(-c2cc(-c3cc(NC(=O)Nc4ccc(C(F)(F)F)nc4)ccc3C)cn(C)c2=O)ccn1` [Example 3, 2-methoxy-N-(1-methyl-5-(2-methyl-5-(3-(6-(trifluoromethyl)pyridin-3-yl)ureido)phenyl)-2-oxo-1,2-dihydro-[3,4′-bipyridin]-2′-yl)acetamide], the pIC50 was more than 7.00 on C-Raf kinase, 6.30 to 7.00 on B-Raf kinase and 6.30 to 7.00 in the test with MiaPaca-2 cells.

Consider `Cc1ccc(NC(=O)Nc2ccc(C(F)F)nc2)cc1-c1cc(OCCO)nc(N2CCOCC2)c1` [Example 38], for which the pIC50 in the test with MiaPaca-2 cells is more than 7.00.

On to `Cc1ccc(NC(=O)Nc2ccc(C(F)(F)F)nc2)cc1-c1cc(-c2cnn(C)c2)nc(N2CCOCC2)c1` [Example 29], for which the pIC50 at C-Raf kinase, on B-Raf kinase and in the test on MiaPaca-2 cells was more than 7.00 in each case.

Regarding `Cc1cc(F)c(NC(=O)Nc2ccc(C(F)(F)F)nc2)cc1-c1cc(OCCN(C)C)nc(N2CCOCC2)c1` [Example 27], the pIC50 was 6.30 to 7.00 at C-Raf kinase, 6.00 to 6.30 on B-Raf kinase and 5.00 to 6.00 in the test with MiaPaca-2 cells.
